Results published in EP4692094A1 (Beijing Konruns Pharmaceutical Co., Ltd., priority 2023, dated 2024).
pIC50: −log10 of the molar value.

What was measured:
[1] = In-vivo pharmacokinetic study in rats; parameters: species or system SD female rats; conditions: rat, plasma, po, 5 mg/kg, intragastric administration
Experimental: 1.1 Instrument: high-performance liquid chromatograph: SHIMADZU LC-30AD; mass spectrum: AB SCIEX mass spectrometer Triple Quad 5500; all measured data were calculated and processed using Microsoft Excel, and relevant pharmacokinetic parameters were calculated using WinNonlin software. The main obtained kinetic parameters are Tmax, T1/2, Cmax, AUC0-24 h, and AUCinf. […] Sample injection amount: 1 µL.
1.2 Animals: three SD female rats were used. The body weight range was 180-300 g. After purchase, the rats were bred in the experimental animal center for two days for later use. The rats were fasted 12 h before administration and 4 h after administration, and given ad libitum access to water during the assay. Blood samples were taken at predetermined time points after intragastric administration.
1.3 Vehicle: 0.5% HPMC (hydroxypropyl methylcellulose) + 0.4% Tween80 + 99.1% water. Preparation of intragastric administration solution: The compound was precisely weighed, the vehicle was added, and then the drug was completely dissolved by ultrasonication at room temperature for 5 min and prepared into a 0.5 mg/mL solution. After the intragastric administration, blood samples were taken at 0.083 h, 0.25 h, 0.5 h, 1.0 h, 2.0 h, 4.0 h, 7.0 h, and 24 h. The blood collection mode is as follows: 0.2 mL of the jugular vein blood was collected, EDTA-K2 was used as an anticoagulation agent, the collected blood sample was transferred into a microcentrifuge tube containing the anticoagulation agent, and the tube was centrifuged at 4 °C and 4000 g for 5 min to separate the plasma. All plasma samples collected were stored at -75±15 °C until analysis.
The compound was precisely weighed and prepared into a standard curve working solution and a quality control working solution at different concentrations. The blank plasma was added and prepared into a plasma standard curve and a quality control sample. LC/MS/MS analysis was performed after pretreatment using a protein precipitation method, and then the concentration of the compounds described above in the plasma was measured. All measured data were collected and processed by the relevant software, and pharmacokinetic parameters were calculated using Winnonlin software. Table 9. Pharmacokinetic parameters of some compounds in the examples in rats

KAT6A = molecular target: T1, KAT6A (Homo sapiens, UniProt Q92794); assay: Enzymatic activity assay for KAT6A acetyltransferase (TR-FRET, acetylation of histone substrate H3); type: biochemical
T1 construct: purchased active motife (Active Motif) 81223
How it was run: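 TR-FRET detection of biotinylated H3 acetylation by KAT6A with acetyl-CoA; compounds in 10-point 3-fold dilution (0.5% DMSO final) preincubated with enzyme 10 min at 25 °C, then 90 min reaction and 60 min Eu-antibody/ULight-SA detection at 25 °C. HTRF 665/615 ratio normalised to DMSO (0%) and top-dose control (100%); IC50 by nonlinear fit.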

hERG channel = molecular target: T2, hERG channel (Homo sapiens, UniProt Q12809); assay: hERG channel assay (manual patch clamp); type: cell-based; conditions: HEK-293 cell line stably expressing the hERG channel, room temperature
T2 construct: expressed in transfected cells; host or cells: HEK-293
Experimental: 1.1 Test methods: This experiment adopted a manual patch clamp technology to detect the blocking effect of the compounds on electric current in the HEK-293 cell line stably expressing the hERG channel, and the risk of the compounds on the inhibitory effect on the cardiac hERG potassium channel was evaluated by fitting a concentration-effect relationship.
1.2 Experimental procedures: The patch clamp operation was performed as follows: Firstly, a capillary glass tube was drawn into a recording electrode with a microelectrode drawing instrument. An electrode filled with the intracellular fluid was mounted on the microelectrode holder. Under an inverted microscope, a microelectrode manipulator was used to immerse the electrode in the extracellular fluid, and the electrode resistance (Rpip) was recorded. The electrode was then slowly brought into contact with the cell surface, and negative pressure was applied to form a GΩ seal. At this time, fast capacitance compensation was performed, and the application of negative pressure was continued to break the cell membrane, forming a whole-cell recording mode. Finally, slow capacitance compensation was performed, and experimental parameters such as series resistance (Rs) were recorded. No current leakage compensation was provided. Administration was started when the hERG current of the whole-cell record was stable. Each drug concentration was maintained for about 5 min (or until the current was stable) for action before the next concentration was measured. Multiple concentrations were measured for each test compound. The coverslip with cells applied thereon was placed in the recording chamber under the inverted microscope. Gravity perfusion was used to flow the blank control extracellular fluid and the working solutions of the test compounds sequentially from low to high concentrations over the cells in the recording chamber. A peristaltic pump was used for liquid exchange during recording. For each cell, the current detected in the compound-free extracellular fluid was used as its own control group. The test was independently repeated three times for each concentration. All electrophysiological experiments were performed at room temperature.
Data processing: First, the tail current (Peak tail currentcompound) after the action of each drug concentration was standardized with the tail current of the blank control (Peak tail currentcontrol), and then the inhibition rate corresponding to each drug concentration was calculated ( 1−(Peak tail currentcompound)/(Peak tail currentcontrol) [formula] ). Subsequently, the mean, standard deviation (SD), and standard error (SE) were calculated for the inhibition rate corresponding to each concentration. The data were represented by Mean ± SE. IC50 value calculation of the compounds and dose-effect curve fitting were performed using the GraphPad Prism software. The data obtained are shown in Table 12: Table 12. hERG channel assay results

T1 sequence (Q92794 whole entry): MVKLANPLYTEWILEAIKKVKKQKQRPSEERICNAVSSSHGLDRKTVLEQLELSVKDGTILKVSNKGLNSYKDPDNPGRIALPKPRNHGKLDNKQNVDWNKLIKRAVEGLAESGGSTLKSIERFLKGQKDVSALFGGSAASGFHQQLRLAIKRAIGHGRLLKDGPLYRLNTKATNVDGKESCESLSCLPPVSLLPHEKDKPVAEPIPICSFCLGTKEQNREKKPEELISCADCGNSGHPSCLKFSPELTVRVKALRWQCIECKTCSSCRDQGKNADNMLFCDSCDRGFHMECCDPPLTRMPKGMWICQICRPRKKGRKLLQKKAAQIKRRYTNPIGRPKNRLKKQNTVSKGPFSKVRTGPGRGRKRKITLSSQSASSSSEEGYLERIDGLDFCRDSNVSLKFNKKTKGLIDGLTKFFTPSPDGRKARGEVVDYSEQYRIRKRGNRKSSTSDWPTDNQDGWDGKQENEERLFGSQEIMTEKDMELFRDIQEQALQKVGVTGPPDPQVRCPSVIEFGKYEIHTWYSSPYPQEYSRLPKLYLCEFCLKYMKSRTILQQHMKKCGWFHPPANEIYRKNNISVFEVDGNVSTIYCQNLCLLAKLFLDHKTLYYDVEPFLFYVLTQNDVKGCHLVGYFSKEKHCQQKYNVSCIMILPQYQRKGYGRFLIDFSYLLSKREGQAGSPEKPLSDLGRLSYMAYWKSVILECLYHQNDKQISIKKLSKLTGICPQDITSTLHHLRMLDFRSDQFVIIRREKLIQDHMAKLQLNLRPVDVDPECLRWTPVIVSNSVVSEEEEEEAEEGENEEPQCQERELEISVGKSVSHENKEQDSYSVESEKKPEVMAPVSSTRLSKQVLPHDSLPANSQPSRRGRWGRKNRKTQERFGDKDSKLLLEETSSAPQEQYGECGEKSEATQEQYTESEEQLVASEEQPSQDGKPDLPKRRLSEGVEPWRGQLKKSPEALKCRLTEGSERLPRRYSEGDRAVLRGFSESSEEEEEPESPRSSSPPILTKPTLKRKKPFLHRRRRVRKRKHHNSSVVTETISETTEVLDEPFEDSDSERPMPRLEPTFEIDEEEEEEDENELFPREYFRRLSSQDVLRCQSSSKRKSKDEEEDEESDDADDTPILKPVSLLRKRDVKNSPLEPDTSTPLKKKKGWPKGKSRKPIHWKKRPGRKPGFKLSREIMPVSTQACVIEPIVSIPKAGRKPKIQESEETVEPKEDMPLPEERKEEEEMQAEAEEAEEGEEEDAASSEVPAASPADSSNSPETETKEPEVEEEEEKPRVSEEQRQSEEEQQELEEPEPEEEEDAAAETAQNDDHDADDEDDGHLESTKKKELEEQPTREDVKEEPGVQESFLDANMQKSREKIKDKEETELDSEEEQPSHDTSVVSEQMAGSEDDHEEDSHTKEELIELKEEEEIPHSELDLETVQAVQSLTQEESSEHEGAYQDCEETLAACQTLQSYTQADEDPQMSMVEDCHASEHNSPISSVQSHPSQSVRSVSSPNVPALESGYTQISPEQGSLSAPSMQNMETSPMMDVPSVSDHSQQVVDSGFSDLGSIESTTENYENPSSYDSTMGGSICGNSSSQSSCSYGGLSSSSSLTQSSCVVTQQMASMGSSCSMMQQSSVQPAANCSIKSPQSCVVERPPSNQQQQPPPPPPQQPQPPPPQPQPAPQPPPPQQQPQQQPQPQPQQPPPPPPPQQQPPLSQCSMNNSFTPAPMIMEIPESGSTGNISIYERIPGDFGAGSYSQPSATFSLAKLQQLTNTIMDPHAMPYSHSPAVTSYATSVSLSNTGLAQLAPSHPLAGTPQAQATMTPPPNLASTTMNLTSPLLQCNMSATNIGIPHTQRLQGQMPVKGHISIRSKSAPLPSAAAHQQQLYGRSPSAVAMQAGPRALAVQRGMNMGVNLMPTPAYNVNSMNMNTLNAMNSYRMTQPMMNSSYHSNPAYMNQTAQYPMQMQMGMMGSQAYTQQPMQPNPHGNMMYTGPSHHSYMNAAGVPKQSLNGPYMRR
T2 sequence (Q12809 whole entry): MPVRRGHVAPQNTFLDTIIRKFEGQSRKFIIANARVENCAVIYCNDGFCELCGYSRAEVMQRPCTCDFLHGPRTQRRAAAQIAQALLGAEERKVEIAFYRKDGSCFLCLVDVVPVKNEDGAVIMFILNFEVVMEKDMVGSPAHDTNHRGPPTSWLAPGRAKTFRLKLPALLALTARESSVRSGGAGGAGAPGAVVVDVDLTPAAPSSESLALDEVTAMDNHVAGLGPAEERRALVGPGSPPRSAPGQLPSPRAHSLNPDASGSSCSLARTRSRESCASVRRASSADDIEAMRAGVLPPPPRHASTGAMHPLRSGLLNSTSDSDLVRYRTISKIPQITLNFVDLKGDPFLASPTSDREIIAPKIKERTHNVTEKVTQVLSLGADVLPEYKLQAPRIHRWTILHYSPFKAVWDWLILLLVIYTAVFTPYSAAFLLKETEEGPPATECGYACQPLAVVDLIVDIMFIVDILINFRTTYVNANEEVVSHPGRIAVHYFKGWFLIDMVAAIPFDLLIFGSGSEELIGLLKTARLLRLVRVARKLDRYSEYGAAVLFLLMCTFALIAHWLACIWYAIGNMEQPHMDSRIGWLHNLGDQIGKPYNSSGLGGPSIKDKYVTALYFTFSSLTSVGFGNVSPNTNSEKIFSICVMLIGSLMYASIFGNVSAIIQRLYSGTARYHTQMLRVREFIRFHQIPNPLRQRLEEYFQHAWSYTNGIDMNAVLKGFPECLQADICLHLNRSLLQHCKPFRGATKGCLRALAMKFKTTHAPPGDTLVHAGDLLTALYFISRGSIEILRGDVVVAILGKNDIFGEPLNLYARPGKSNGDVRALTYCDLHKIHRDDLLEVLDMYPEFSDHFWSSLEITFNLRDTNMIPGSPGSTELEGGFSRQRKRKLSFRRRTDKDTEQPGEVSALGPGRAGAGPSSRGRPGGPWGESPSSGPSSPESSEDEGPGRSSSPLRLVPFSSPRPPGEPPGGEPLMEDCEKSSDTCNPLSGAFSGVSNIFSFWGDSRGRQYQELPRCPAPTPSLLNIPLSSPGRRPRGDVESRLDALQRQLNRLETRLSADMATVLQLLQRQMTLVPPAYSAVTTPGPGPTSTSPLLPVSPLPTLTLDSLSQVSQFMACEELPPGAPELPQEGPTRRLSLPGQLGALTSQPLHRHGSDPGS

SMILES | half-life ([1]; female, SD) [h] | AUC(0-inf) ([1]; female, SD) [ng·h/mL] | Cmax ([1]; female, SD) [ng/mL] | Tmax ([1]; female, SD) [h] | AUC(0-t) ([1]; female, SD, read-out: AUC0-24h) [ng·h/mL] | pIC50 (KAT6A) | pIC50 (hERG channel) | AUC(0-inf) [1] [ng·h/mL] | Cmax [1] [ng/mL] | Tmax [1] [h] | AUC(0-t) at 24 h ([1]; read-out: AUC0-24h) [ng·h/mL]
COc1cc2c(cc1S(=O)(=O)Nc1noc3cc(Cn4cccn4)nc(OC)c13)CCCC2 [Example 2, N-(6-((1H-Pyrazol-1-yl)methyl)-4-methoxyisoxazolo[4,5-c]pyridin-3-yl)-3-methoxy-5,6,7,8-tetrahydronaphthalene-2-sulfonamide] | ≤ 10 | 71500 | 4410 | 6 | 64800 | 9.14 | < 4.52 |  |  |  | 
COc1nc(Cn2cccn2)cc2onc(NS(=O)(=O)c3cccc4c3OCCO4)c12 [Example 4, N-(6-((1H-Pyrazol-1-yl)methyl)-4-methoxyisoxazolo[4,5-c]pyridin-3-yl)-2,3-dihydrobenzo[b][1,4]dioxine-5-sulfonamide] |  | 12000 | 5960 | 0.25 | 11800 | 8.82 | < 4.52 |  |  |  | 
COc1nc(Cn2cccn2)cc2onc(NS(=O)(=O)c3cccc4ccoc34)c12 [Example 5, N-(6-((1H-Pyrazol-1-yl)methyl)-4-methoxyisoxazolo[4,5-c]pyridin-3-yl)benzofuran-7-sulfonamide] | ≤ 10 | 19700 | 5960 | 0.25 | 18500 | 8.34 | < 4.52 |  |  |  | 
COc1ccc2c(c1S(=O)(=O)Nc1noc3cc(Cn4cccn4)nc(OC)c13)OCC2 [Example 9, N-(6-((1H-Pyrazol-1-yl)methyl)-4-methoxyisoxazolo[4,5-c]pyridin-3-yl)-6-methoxy-2,3-dihydrobenzofuran-7-sulfonamide] |  | 215000 | 22500 | 1.83 | 215000 | 9.04 | < 4.52 |  |  |  | 
COc1ccc2ccoc2c1S(=O)(=O)Nc1noc2cc(Cn3cccn3)nc(OC)c12 [Example 10, N-(6-((1H-Pyrazol-1-yl)methyl)-4-methoxyisoxazolo[4,5-c]pyridin-3-yl)-6-methoxybenzofuran-7-sulfonamide] |  | 74300 | 10500 | 0.5 | 72300 | 9.42 | < 4.52 |  |  |  | 
COc1cc2c(cc1S(=O)(=O)Nc1noc3cc(Cn4cccn4)nc(OC)c13)OCC2 [Example 59, N-(6-((1H-Pyrazol-1-yl)methyl)-4-methoxyisoxazolo[4,5-c]pyridin-3-yl)-5-methoxy-2,3-dihydrobenzofuran-6-sulfonamide] |  | 167000 | 16500 | 1.17 | 166000 | 9.02 | < 4.52 |  |  |  | 
COc1cc2c(cc1S(=O)(=O)Nc1noc3cc(Cn4cccn4)nc(OC)c13)CCCO2 [Example 76, N-(6-((1H-Pyrazol-1-yl)methyl)-4-methoxyisoxazolo[4,5-c]pyridin-3-yl)-7-methoxy-3,4-dihydro-1H-benzopyran-6-sulfonamide] |  |  |  |  |  | 8.98 |  | 162000 | 14400 | 2.33 | 158000
